Source: patent US20110059043A1, “CHEMICAL COMPOUNDS” (priority 2009, published 2011)

Tests used:
[1] = system: HCV replicon cells Huh 9B; assay: HCV replicon assay (luciferase); format: cell-based; conditions: Hepatitis C virus, reduction of replicon level by 50% vs untreated cell control, 72 h
Experimental: (§1) HCV replicon cells Huh 9B (ReBlikon), containing the firefly luciferase—ubiquitin—neomycin phosphotransferase fusion protein and EMCV-IRES driven HCV polyprotein with cell culture adaptive mutations.
(§2) Cells were cultured at 37° C. in a 5% CO2 environment and split twice a week on seeding at 2×10^6 cells/flask on day 1 and 1×10^6 3 days later. G418 at 0.5 mg/ml was added to the culture medium but not the assay medium. The culture medium consisted of DMEM with […] glucose and glutamax (Gibco 61965-026) supplemented with 1×non-essential amino acids (Invitrogen 11140-035), penicillin (100 IU/ml)/streptomycin (100 μg/ml) (Invitrogen 15140-122), FCS (10%, 50 ml) and […] (Invitrogen 10131-027) & 10% Australian foetal calf serum (Invitrogen 10099-141).
(§3) A flask of cells was trypsinised and a cell count carried out. Cells were diluted to 100,000 cells/ml and 100 μl of this used to seed one opaque white 96-well plate (for the replicon assay) and one flat-bottomed clear plate (for the tox assay) for every five compounds to be tested for IC50. Wells G12 and H12 were left empty in the clear plate as the blank. Plates were then incubated at 37° C. in a 5% CO2 environment for 24 h.
(§4) On the following day compound dilutions are made up in medium at twice their desired final concentration in a clear round bottomed plate. All dilutions have a final DMSO concentration of 1%.
(§5) Once the dilution plate had been made up, controls and compounds were transferred to the assay plates (containing the cells) at 100 μl/well in duplicate wells. Exception: no compound was added to wells A1 and A2 of either plate and 100 μl of 1% DMSO was added to these instead. Plates were then incubated at 37° C. with 5% CO2 for 72 h.
At the end of the incubation time, the cells in the white plate were harvested by washing in PBS (100 μL per well) and gently tapping dry before addition of […] of lysis buffer (25 mM tris-phosphate, 8 mM MgCl2, 1 mM DTT, 1% Triton X-100, 15% glycerol. pH to 7.8 using KH2PO4 prior to triton and glycerol addition. Substrate was prepared: 23.5 mM beetle luciferin (Promega E1603), 26 mM ATP (Sigma O-2060) in […] Tris buffer pH 7.8 aliquoted and stored at −80° C. was thawed and diluted 1:50 in luciferase assay buffer (20 mM Tricine (Sigma T-0377), 1.07 mM magnesium carbonate hydroxide (Sigma M-5671), 0.1 mM EDTA (Sigma E-5134), 2.67 mM MgSO4(BDH 101514Y), 33.3 mM dithiothreitol (Sigma 150460) pH 7.8).
The M injector of the microplate luminometer (Lmax, Molecular Devices) was primed with 5×300 μl injections of the diluted substrate. After 5-60 min incubation in lysis buffer at room temperature, a plate was inserted into the luminometer and 100 μl luciferase assay reagent was added by the injector on the luminometer. The signal was measured using a 1 second delay followed by a 4 second measurement programme. The IC50, the concentration of the drug required for reducing the replicon level by 50% in relation to the untreated cell control value, can be calculated from the plot of the percentage reduction of the luciferase activity vs. drug concentration.

[2] = target: T1, Recombinant HCV polymerase (BK strain) (Hepatitis C virus genotype 1b, UniProt P26663); assay: HCV polymerase enzyme assay (radiometric [33P]-UTP incorporation); format: biochemical, HCV 1b
T1 construct: Recombinant HCV polymerase (BK strain) was expressed and purified from E. coli with a 21 amino acid C-terminal deletion; His6; made in house; host or cells: E. coli
Experimental: Compounds were tested for inhibition of HCV polymerase using a radiometric [^33P]-UTP incorporation assay and a biotinylated U13:PolyA primer:template RNA substrate.
Recombinant HCV polymerase (BK strain) was expressed and purified from E. coli with a 21 amino acid C-terminal deletion and a His6-tag. The general assay buffer consisted of 20 mM Tris (pH 7.5), 25 mM KCl, 5 mM MgCl2, 3 mM DTT, 0.5 mg/ml BSA, 0.01% Tween20. The standard reaction, in 96 well plates, contained 10 μl of diluted compound, 50 μl of substrate and 40 μl of enzyme. Compounds, supplied as 10 mM stocks in DMSO, were diluted initially in neat DMSO, and subsequently buffer was added to give a DMSO concentration of 30%; 10 μl of this was added to the assay plate to give a final concentration in the 100 μl assay of 3% DMSO. The biotinylated U13:PolyA RNA substrate was pre-annealed with 40 μM 5′-biotinylated U13 (Dharmacon) and 213 μg/ml PolyA (Amersham Biosciences) in water incubated at 70° C. for 5 minutes before being cooled on ice. Substrate (50 μl) was added in buffer to give a final concentration in the 100 μl assay of 125 nM biotinylated U13:0.63 μg/ml PolyA and 200 nM UTP with 0.4 μCi [^33P]-UTP per well (Perkin Elmer). The reaction was initiated by the addition of 40 μl of enzyme in buffer to give 100 nM final concentration. The reaction was incubated at 25° C. for 100 minutes and then stopped by addition of 100 μl of 100 mM EDTA. The samples were then transferred to 96 well Streptavidin-coated FlashPlates (Perkin Elmer) and incubated at room temperature for ˜1 hour to allow binding to occur. The plates were then washed three times with phosphate-buffered saline containing 0.05% Tween20 in an automated plate washer to remove unincorporated [^33P]-UTP, and then counted in a
Each plate included a set of positive controls (no compound, maximum signal) and negative controls (no enzyme, minimum signal) and in each run at least one reference is compound was included to validate the assay. The IC50, concentration required to inhibit the enzyme activity by 50%, was calculated using an 8-point IC50 curve and fitted using the program XLfit (IDBS).

[3] = system: HCV replicon cells Huh 9B; format: cell-based; conditions: concentration reducing total cell area by 50% relative to DMSO controls; 72 h
Experimental: as §1, §2, §3, §4, §5
The clear plate was stained with 100 μl 0.5% methylene blue in 50% ethanol at room temperature for lh, followed by solvation of the absorbed methylene blue in 100 μl per well of 1% lauroylsarcosine. Absorbance of the plate was measured on a microplate spectrophotometer (Molecular Devices) and the absorbance for each concentration of compound expressed as a proportion of the relative DMSO control. The TD50, the concentration of drug required to reduce the total cell area by 50% relative to the DMSO controls, can be calculated by plotting the absorbance at 620 nm minus background against drug concentration.

T1 sequence (P26663 2420-2989): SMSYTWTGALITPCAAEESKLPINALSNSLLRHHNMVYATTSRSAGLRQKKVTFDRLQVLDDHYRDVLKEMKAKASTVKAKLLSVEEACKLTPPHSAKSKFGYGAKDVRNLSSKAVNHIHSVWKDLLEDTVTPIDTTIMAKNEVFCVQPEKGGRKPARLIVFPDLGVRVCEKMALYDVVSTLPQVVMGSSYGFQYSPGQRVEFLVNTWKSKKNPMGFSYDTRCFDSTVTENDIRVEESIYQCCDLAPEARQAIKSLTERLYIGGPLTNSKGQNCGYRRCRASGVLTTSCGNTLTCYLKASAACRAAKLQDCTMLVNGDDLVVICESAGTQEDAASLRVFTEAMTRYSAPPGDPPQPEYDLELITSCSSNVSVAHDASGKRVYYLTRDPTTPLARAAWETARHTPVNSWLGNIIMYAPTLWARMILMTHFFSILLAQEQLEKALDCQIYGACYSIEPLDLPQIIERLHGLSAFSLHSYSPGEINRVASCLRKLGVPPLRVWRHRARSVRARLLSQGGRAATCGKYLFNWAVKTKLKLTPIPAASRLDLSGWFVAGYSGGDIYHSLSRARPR

Compound	IC50 [1]	IC50 [2]	Replicon Assay Value TD50 [3]
O=C(NC1N=C(c2c(Cl)cc(Cl)cc2Cl)c2ccccc2NC1=O)c1cc(Cl)ccc1OCCOc1ccccc1 (stereo not drawn) [Example 11, 5-Chloro-N-(2-oxo-5-(2,4,6-trichlorophenyl)-2,3-dihydro-1H-benzo[e][1,4]diazepin-3-yl)-2-(2-phenoxyethoxy)benzamide]	1150 nM	864 nM	>25 µM
COCCOCCOc1ccc(Cl)cc1C(=O)NC1N=C(c2c(Cl)cc(Cl)cc2Cl)c2ccccc2NC1=O (stereo not drawn) [Example 5, 5-Chloro-2-(2-(2-methoxyethoxy)ethoxy)-N-(2-oxo-5-(2,4,6-trichlorophenyl)-2,3-dihydro-1H-benzo[e][1,4]diazepin-3-yl)benzamide]	490 nM	209 nM	15.913 µM
CO[C@@H](C)COc1ccc(Cl)cc1C(=O)NC1N=C(c2c(Cl)cc(Cl)cc2Cl)c2ccccc2NC1=O (stereo partly drawn) [Example 2, 5-Chloro-2-((S)-2-methoxypropoxy)-N-(2-oxo-5-(2,4,6-trichlorophenyl)-2,3-dihydro-1H-benzo[e][1,4]diazepin-3-yl)benzamide]	382 nM	167 nM	>25 µM
CN(C)CCCOc1ccc(Cl)cc1C(=O)NC1N=C(c2c(Cl)cc(Cl)cc2Cl)c2ccccc2NC1=O (stereo not drawn) [Example 12, 5-Chloro-2-(3-(dimethylamino)propoxy)-N-(2-oxo-5-(2,4,6-trichlorophenyl)-2,3-dihydro-1H-benzo[e][1,4]diazepin-3-yl)benzamide]	5510 nM	3130 nM	4.253 µM
CC(C)OCCOc1ncc(F)cc1C(=O)NC1N=C(c2c(Cl)cc(Cl)cc2Cl)c2ccccc2NC1=O (stereo not drawn) [Example 36, 5-Fluoro-2-(2-isopropoxyethoxy)-N-(2-oxo-5-(2,4,6-trichlorophenyl)-2,3-dihydro-1H-benzo[e][1,4]diazepin-3-yl)nicotinamide]	308 nM	244 nM	13.55 µM
COCC(C)Oc1ccc(Cl)cc1C(=O)NC1N=C(c2c(Cl)cc(Cl)cc2Cl)c2ccccc2NC1=O (stereo not drawn) [Example 4, 5-Chloro-2-(1-methoxypropan-2-yloxy)-N-(2-oxo-5-(2,4,6-trichlorophenyl)-2,3-dihydro-1H-benzo[e][1,4]diazepin-3-yl)benzamide]	304 nM	261 nM	>25 µM
CCOCCN(CC)c1ncc(F)cc1C(=O)NC1N=C(c2c(Cl)cc(Cl)cc2Cl)c2ccccc2NC1=O (stereo not drawn) [Example 45, 2-((2-Ethoxyethyl)(ethyl)amino)-5-fluoro-N-(2-oxo-5-(2,4,6-trichlorophenyl)-2,3-dihydro-1H-benzo[e][1,4]diazepin-3-yl)nicotinamide]	752 nM	176 nM	18.864 µM
CCOCCOc1ncc(F)cc1C(=O)N[C@H]1N=C(c2c(Cl)cc(Cl)cc2Cl)c2ccccc2NC1=O [Example 65, (S)-2-(2-Ethoxyethoxy)-5-fluoro-N-(2-oxo-5-(2,4,6-trichlorophenyl)-2,3-dihydro-1H-benzo[e][1,4]diazepin-3-yl)nicotinamide]	4.8 nM	32.3 nM	10.854 µM
COCCOc1ccc(Cl)cc1C(=O)N[C@@H]1N=C(c2c(Cl)cc(Cl)cc2Cl)c2ccccc2NC1=O [Example 60, (R)-5-Chloro-2-(2-methoxyethoxy)-N-(2-oxo-5-(2,4,6-trichlorophenyl)-2,3-dihydro-1H-benzo[e][1,4]diazepin-3-yl)benzamide]	798 nM	27700 nM	>25 µM
CCCCCOCCOc1ccc(Cl)cc1C(=O)NC1N=C(c2c(Cl)cc(Cl)cc2Cl)c2ccccc2NC1=O (stereo not drawn) [Example 7, 5-Chloro-N-(2-oxo-5-(2,4,6-trichlorophenyl)-2,3-dihydro-1H-benzo[e][1,4]diazepin-3-yl)-2-(2-(pentyloxy)ethoxy)benzamide]	1450 nM	662 nM	11.806 µM
